Results taken from article PMC11056026, “The Evaluation of Teleost-Derived Antimicrobial Peptides Against Neisseria gonorrhoeae” (Cureus, 2024).
Like-named read-outs stand apart in the source and are kept apart here. Residues, ends and D or L forms follow the SMILES beside them. No end group written: not given here.

How the values were obtained:
[1] = system: ME180 endocervical epithelial cells; details: 24 hours; for Cell survival of ME180 cells vs non-treatment control (CCK-8): 10 μg/mL AMP, three independent experiments
Experimental: ME180 cells were seeded into 96-well microtiter plates at a 5 × 10^3 cells/well density and incubated for 24 hours. A final concentration of 10 μg/mL of AMP and 0.1% of positive control Triton-X were added to the well and incubated for 24 hours. Next, the Cell Counting Kit-8 (CCK-8) solution (Tools Biotech Inc., New Taipei City, Taiwan) was added and incubated for one hour. The absorbance at 450 nm was measured in each well, and the cytotoxicity level was analyzed according to the manufacturer's instructions.
GC colonization and infection only start after the GC's adherence to epithelial cells in the reproductive tract. Thus, adherence plays a crucial role in the initial colonization of GC on mucosal surfaces. […] Since these AMP may also affect epithelial cell viability, examining the effects of three AMP on both epithelial cells, and GC adherence is needed. To examine the effects of AMP on epithelial cells, ME180 cells were incubated with or without 10 μg/mL AMP for 24 hours, and the CCK-8 cell viability assay was conducted. Triton-X, a membrane-disrupting agent at a final concentration of […], was administered as a positive control.
ME180 cells were grown on a 96-well plate, and 10 μg/mL of designated AMP was added with or without inoculating MS11. (A) To measure cell cytotoxicity, cells with or without AMP or 0.1% Triton-X were incubated for 24 hours, and CCK-8 assay was performed to determine the cell survival rate. (B) To evaluate GC adherence, cells with MS11 were incubated for three hours to determine the adherent GC. GC treated with 0.5 μg/mL of azithromycin (AZI) served as a positive control. Non-treated GC was served as control (Ct). The bars represented the means of each group with standard deviations. Statistical significance was determined using a one-way ANOVA followed by post hoc Dunnett's test.

[2] = system: Neisseria gonorrhoeae MS11 strain; assay: Antibiotic susceptibility testing, disk diffusion (CLSI); format: cell-based; parameters: key: R, resistant; I, intermediate; S, susceptible; details: CLSI criteria, 24 h, 37°C, 5% CO2
Experimental: (§1) Briefly, the overnight colonies (16-20 hours) were suspended and diluted in GCP broth to a concentration of optical density (OD) = 0.1 at 650 nm. The bacterial suspension was then plated onto GC agar plates using swabs, and the disks were placed on the bacterial lawn with sterile tweezers. The plates were incubated at 37°C with 5% CO2 for 24 hours. The diameter of the inhibition zone was measured to determine the susceptibility according to the criteria recommended by the CLSI standard.

[3] = system: WHO gonococcal reference strain Z (WHO Z); assay: as above; format: cell-based, Neisseria gonorrhoeae; parameters: key: R, resistant; I, intermediate; S, susceptible; details: CLSI criteria, 24 h, 37°C, 5% CO2
Experimental: as §1

[4] = system: Neisseria gonorrhoeae MS11; assay: Transmission electron microscopy of treated GC; format: cell-based; details: AMP 10 μg/mL or azithromycin 0.5 μg/mL, four hours
Description: The bars represented the means of each group with standard deviations.

[5] = system: Neisseria gonorrhoeae MS11 adherence to ME180 endocervical epithelial cells; assay: Adherence assay of GC to ME180 cells; format: cell-based; details: MS11 on ME180 cells, azithromycin 0.5 μg/mL, three hours
Experimental: Cells were then lysed with 1% saponin in sterile phosphate-buffered saline (PBS) and spread onto the GCK agar plate. The number of adherent GC was counted to determine the effect of AMP.
Non-treated GC was served as control (Ct).
To assess the effects of AMP on adherence, MS11 was inoculated onto ME180 cells in the presence or absence of AMP for three hours. The cells were then collected and plated on GCK agar. Adherent GC were determined by colony counts. Azithromycin was used as a control for comparison.

[6] = system: Neisseria gonorrhoeae MS11 strain; details: 24 h
Experimental: (§2) The synthetic AMP (Table 1) were purchased (Mission Bio, Taipei, Taiwan), and the inhibition activity test against GC was adapted from Bergman et al.. Briefly, GC were suspended in GCP broth to a concentration of 105 colony-forming units (CFU)/mL, and 180 μL of this suspension was added to each well of a 96-well plate with 20 μL peptide solution at various concentrations. The final concentration of AMP in each well ranged from 0.08 to 20 μg/mL. The samples were incubated at 37°C with 5% CO2 for 24 hours. After the incubation, 10 μL of the suspension from each well was spotted on GCK agar plates.

[7] = system: WHO gonococcal reference strain Z (WHO Z); details: GCP broth, 10^5 CFU/mL, 24 h, 37°C, 5% CO2, lowest concentration reducing >=90% of bacteria vs non-AMP control, means of three independent experiments
Experimental: as §2

HeLa cells = details: cited from earlier work
HT1080 cells = details: HT1080, 15 μg/mL or more; cited from earlier work
Listeria monocytogenes = details: cited from earlier work
Description: (§3) [26], indicating the low efficacy of TH1-5. Piscidins were reported widely as the broadest teleost-derived AMP against several gram-positive and gram-negative species.

Vibrio spp. = details: 100 μg/mL or above; cited from earlier work
Description: as §3

CC(C)(C)CC(C)(C)c1ccc(OCCO)cc1 [Triton-X, reference compound]
Decrease in cell survival of ME180 cells (CCK-8) ([1]; positive control, final concentration of 0.01% (0.1% elsewhere in the source)): 88%

CC[C@H]1OC(=O)[C@H](C)[C@@H](O[C@H]2C[C@@](C)(OC)[C@@H](O)[C@H](C)O2)[C@H](C)[C@@H](O[C@@H]2O[C@H](C)C[C@H](N(C)C)[C@H]2O)[C@](C)(O)C[C@@H](C)CN(C)[C@H](C)[C@@H](O)[C@]1(C)O [Azithromycin]
Antibiotic susceptibility [2]: S
Antibiotic susceptibility [3]: R
Morphological and structural changes of GC (TEM) [4]: intact membranes
Reduction of adherent GC compared to the AMP-treated group [5]: significantly higher reduction

FIHHIIGGLFSAGKAIHRLIRRRRR [TP4] [listing 1 of 2 here]
Cell survival of ME180 cells vs non-treatment control (CCK-8) [1]: No significant difference

CO/N=C(\C(=O)N[C@@H]1C(=O)N2C(C(=O)O)=C(CSc3nc(=O)c(=O)[nH]n3C)CS[C@H]12)c1csc(N)n1 [Ceftriaxone]
Antibiotic susceptibility [2]: S
Antibiotic susceptibility [3]: I

FIHHIIGGLFSVGKHIHSLIHGH [TP3]
MIC of AMP [6]: >10 µg/mL
MIC of AMP [7]: >20 µg/mL

FFHHIFRGIVHVGKTIHRLVTG [PIS] [listing 1 of 2 here]
Cell survival of ME180 cells vs non-treatment control (CCK-8) [1]: No significant difference

Pardaxin
Concentration inhibiting cells (HeLa cells): ≥ 15 µg/mL
Inhibition of cells (HT1080 cells): not

FFHHIFRGIVHVGKTIHRLVTG [PIS] [listing 2 of 2 here]
MIC of AMP [7]: 10 µg/mL

CC[C@H](C)[C@H](NC(=O)CNC(=O)[C@@H]1CCCN1C(=O)[C@@H](NC(=O)[C@H](CS)NC(=O)[C@H](CS)NC(=O)CNC(=O)[C@H](CS)NC(=O)[C@H](CS)NC(=O)[C@H](Cc1ccccc1)NC(=O)[C@H](CCCNC(=N)N)NC(=O)[C@H](CS)NC(=O)[C@H](CCCCN)NC(=O)[C@@H](NC(=O)CN)[C@@H](C)CC)[C@@H](C)O)C(=O)N[C@@H](CS)C(=O)NCC(=O)N[C@H](C(=O)N[C@@H](CS)C(=O)N[C@@H](CS)C(=O)N[C@@H](CCCNC(=N)N)C(=O)N[C@@H](Cc1ccccc1)C(=O)O)C(C)C [TH1-5] (H-GIKCRFCCGCCTPGICGVCCRF-OH; N-terminus and C-terminus assumed)
MIC of AMP ([6]; MS11 strain, GCP broth, 10^5 CFU/mL, 37°C, 5% CO2, lowest concentration reducing >=90% of bacteria vs non-AMP control, means of three independent experiments): >10 µg/mL
MIC of AMP [7]: >20 µg/mL
Concentration exhibiting antibacterial activity (Listeria monocytogenes): ≥ 100 µg/mL
Antibacterial activity (Vibrio spp.): not

FIHHIIGGLFSAGKAIHRLIRRRRR [TP4] [listing 2 of 2 here]
MIC of AMP [7]: 10 µg/mL
